Tests used:
BI-2493 [1] = compound: T1, C[C@H]1CNCCN1c1nccc(-c2noc3c2CCC[C@@]32CCCc3sc(N)c(C#N)c32)n1 [BI-2493]; conditions: 5 days
Experimental: (§1)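 PRISM pooled barcoded cancer cell line viability screen (Broad Institute) with BI-2493 at 8 doses in threefold dilutions from 0.00457 to 10 µmol/L, 5-day treatment; curves fitted per cell line. IC50 is undefined (placeholder) for resistant lines. AUC is capped at 1, and sensitivity is reported as 1 − AUC.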

BI-2493 [2] = compound: T1, BI-2493; assay: 1 - AUC of viability dose-response curve (sensitivity) (fraction); higher = more sensitive; conditions: 5 days
Experimental: as §1

Test System | IC50 of cell viability (BI-2493 [1]) [µM] | 1 - AUC of viability dose-response curve (BI-2493 [2])
SNU489_CENTRAL_NERVOUS_SYSTEM | 4.14 | 0.103
SNU638_STOMACH | 8.32 | 0.119
SNU668_STOMACH | 6.46 | 0.234
SNU685_ENDOMETRIUM | 9.5 | 0.0102
SNU719_STOMACH | 9.46 | 0.00913
SNU761_LIVER | 2.4 | 0.297
SNU840_OVARY | 7.7 | 0.0623
SNU869_BILIARY_TRACT | 2.14 | 0.279
SNU886_LIVER | 5.03 | 0.211
SNU899_UPPER_AERODIGESTIVE_TRACT | 4.32 | 0.157
SNU1041_UPPER_AERODIGESTIVE_TRACT | 9.15 | 0.019
SNU1066_UPPER_AERODIGESTIVE_TRACT | 6.03 | 0.0923
SNU1076_UPPER_AERODIGESTIVE_TRACT | 3.84 | 0.104
SNU1077_ENDOMETRIUM | 8.81 | 0.0934
SNU1105_CENTRAL_NERVOUS_SYSTEM | 4.12 | 0.157
SNU1196_BILIARY_TRACT | 0.361 | 0.496
SNU1214_UPPER_AERODIGESTIVE_TRACT | 0.175 | 0.482
SNU1544_LARGE_INTESTINE | 2.68 | 0.203

Test System | IC50 of cell viability (BI-2493 [1]) [µM] | 1 - AUC of viability dose-response curve (BI-2493 [2])
SNU2372_BREAST | 6.37 | 0.0682
SNUC2A_LARGE_INTESTINE | > 10 | 0.0882
SNUC4_LARGE_INTESTINE | 5.72 | 0.162
SQ1_LUNG | 3.68 | 0.153
SR786_HAEMATOPOIETIC_AND_LYMPHOID_TISSUE | 7.44 | 0.0498
SSP25_BILIARY_TRACT | 8.5 | 0.11
STM9101_SOFT_TISSUE | > 10 | 0.0387
SUDHL1_HAEMATOPOIETIC_AND_LYMPHOID_TISSUE | 4.67 | 0.14
SUDHL8_HAEMATOPOIETIC_AND_LYMPHOID_TISSUE | 9.1 | 0.0165
SUIT2_PANCREAS | 4.96 | 0.123
SUM149PT_BREAST | 3.94 | 0.168
SUM159PT_BREAST | 7.31 | 0.064
SUPB15_HAEMATOPOIETIC_AND_LYMPHOID_TISSUE | 3.13 | 0.149
SUPT11_HAEMATOPOIETIC_AND_LYMPHOID_TISSUE | 5.2 | 0.0681
SUSA_TESTIS | 1.09 | 0.243
SW13_ADRENAL_CORTEX | 4.77 | 0.0973
SW156_KIDNEY | 9.51 | 0.0358
SW579_THYROID | 3.16 | 0.133

— the supplement of paper PMC11962398
